In ChEMBL document CHEMBL5241119, “Hydroxypyrone derivatives in drug discovery: from chelation therapy to rational design of metalloenzyme inhibitors” (RSC Med Chem, 2022):

Tests used:
Neutrophil collagenase [1] = molecular target: T1, Neutrophil collagenase (Homo sapiens, UniProt P22894); assay: Inhibition of beta-glucosidase activated MMP-8 (unknown origin) relative to control; settings: concentration not given here
[2] = molecular target: T2, Matrix metalloproteinase-9 (Homo sapiens, UniProt P14780); assay: Inhibition of beta-glucosidase activated MMP-9 (unknown origin) relative to control; settings: concentration not given here
T2 sequence (P14780 whole entry, the tested form may be a part): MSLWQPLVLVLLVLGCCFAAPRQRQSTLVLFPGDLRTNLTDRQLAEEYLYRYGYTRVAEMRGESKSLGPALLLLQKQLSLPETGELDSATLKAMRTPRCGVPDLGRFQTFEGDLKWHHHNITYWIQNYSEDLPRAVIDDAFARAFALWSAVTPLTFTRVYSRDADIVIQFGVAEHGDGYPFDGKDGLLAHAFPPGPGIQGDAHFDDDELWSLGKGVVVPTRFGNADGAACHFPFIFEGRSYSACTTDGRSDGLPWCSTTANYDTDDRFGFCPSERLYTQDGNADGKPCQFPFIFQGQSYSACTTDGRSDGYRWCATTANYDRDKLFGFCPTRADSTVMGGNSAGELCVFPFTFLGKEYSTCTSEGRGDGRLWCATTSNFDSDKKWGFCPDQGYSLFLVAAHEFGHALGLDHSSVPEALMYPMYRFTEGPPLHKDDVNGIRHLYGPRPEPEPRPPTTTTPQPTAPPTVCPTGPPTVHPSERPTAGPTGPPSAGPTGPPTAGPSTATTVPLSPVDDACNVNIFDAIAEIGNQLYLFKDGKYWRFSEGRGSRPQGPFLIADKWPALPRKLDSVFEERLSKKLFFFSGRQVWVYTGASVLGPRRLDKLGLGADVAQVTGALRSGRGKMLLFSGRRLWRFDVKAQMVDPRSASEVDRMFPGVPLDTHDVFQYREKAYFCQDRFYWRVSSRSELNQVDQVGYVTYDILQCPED

[3] = molecular target: Polymerase acidic protein (Influenza A virus (A/Puerto Rico/8/1934(H1N1))) (UniProt P03433); assay: Inhibition of Influenza A virus N-terminal domain of PA endonuclease relative to control; settings: concentration not given here
[4] = Inhibition of Pseudomonas aeruginosa Metallo-beta-lactamase VIM-2
Pseudomonas aeruginosa = assay: Inhibition of Pseudomonas aeruginosa Metallo-beta-lactamase VIM-2 at 50 uM relative to control
[5] = Therapeutic index, ratio of CC50 for HEK293 cells to EC50 for Escherichia coli expressing VIM-2; type: toxicity; settings: human, read-out: Ratio CC50/EC50
Acetylcholinesterase = Acetylcholinesterase (Electrophorus electricus, UniProt O42275); assay: Inhibition of Electrophorus electricus AChE
Chain of Acetylcholinesterase (O42275 whole entry): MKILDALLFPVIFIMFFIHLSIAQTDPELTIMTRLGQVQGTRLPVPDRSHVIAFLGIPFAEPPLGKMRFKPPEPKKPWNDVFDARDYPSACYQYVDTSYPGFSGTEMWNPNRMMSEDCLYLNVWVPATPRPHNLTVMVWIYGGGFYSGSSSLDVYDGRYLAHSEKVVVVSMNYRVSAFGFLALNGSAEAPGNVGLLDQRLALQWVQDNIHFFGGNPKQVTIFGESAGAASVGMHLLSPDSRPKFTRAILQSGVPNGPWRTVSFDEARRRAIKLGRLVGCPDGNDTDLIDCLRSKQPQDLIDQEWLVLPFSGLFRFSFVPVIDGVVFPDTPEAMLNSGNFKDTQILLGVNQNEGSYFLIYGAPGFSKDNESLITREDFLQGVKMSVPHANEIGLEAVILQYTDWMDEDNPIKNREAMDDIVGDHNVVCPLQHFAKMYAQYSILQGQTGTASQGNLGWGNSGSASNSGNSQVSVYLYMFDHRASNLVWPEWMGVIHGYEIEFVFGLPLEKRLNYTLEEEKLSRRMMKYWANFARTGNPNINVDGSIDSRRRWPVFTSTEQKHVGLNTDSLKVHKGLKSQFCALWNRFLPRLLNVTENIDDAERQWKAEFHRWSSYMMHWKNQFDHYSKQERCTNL

[6] = molecular target: Amyloid-beta precursor protein (Homo sapiens) (UniProt P05067); assay: Inhibition of amyloid beta (1 to 42 ) (unknown origin) self aggregation at 100 uM relative to control
SH-SY5Y = assay: Protection against amyloid beta (1 to 42) induced toxicity in human SH-SY5Y cells assessed as increase in cell viability; type: functional
[7] = molecular target: T3, Mushroom tyrosinase (Agaricus bisporus) (UniProt O42713+Q00024+C7FF04+C7FF05); assay: Inhibition of mushroom monophenolase activity using L-DOPA as substrate preincubated with substrate followed by compound addition by Lineweaver-burk reciprocal plot analysis
Glycine max = assay: Inhibition of soybean 5-LOX relative to control
Mushroom tyrosinase [8] = molecular target: T4, Mushroom tyrosinase (Agaricus bisporus, UniProt O42713+Q00024+C7FF04+C7FF05); assay: Inhibition of mushroom monophenolase
Mushroom tyrosinase [9] = molecular target: T4, Mushroom tyrosinase; assay: Inhibition of mushroom diphenolase
[10] = molecular target: Amine oxidase [flavin-containing] B (Homo sapiens, UniProt P27338); assay: Inhibition of human MAO-B
Chain of Amine oxidase [flavin-containing] B (P27338 whole entry): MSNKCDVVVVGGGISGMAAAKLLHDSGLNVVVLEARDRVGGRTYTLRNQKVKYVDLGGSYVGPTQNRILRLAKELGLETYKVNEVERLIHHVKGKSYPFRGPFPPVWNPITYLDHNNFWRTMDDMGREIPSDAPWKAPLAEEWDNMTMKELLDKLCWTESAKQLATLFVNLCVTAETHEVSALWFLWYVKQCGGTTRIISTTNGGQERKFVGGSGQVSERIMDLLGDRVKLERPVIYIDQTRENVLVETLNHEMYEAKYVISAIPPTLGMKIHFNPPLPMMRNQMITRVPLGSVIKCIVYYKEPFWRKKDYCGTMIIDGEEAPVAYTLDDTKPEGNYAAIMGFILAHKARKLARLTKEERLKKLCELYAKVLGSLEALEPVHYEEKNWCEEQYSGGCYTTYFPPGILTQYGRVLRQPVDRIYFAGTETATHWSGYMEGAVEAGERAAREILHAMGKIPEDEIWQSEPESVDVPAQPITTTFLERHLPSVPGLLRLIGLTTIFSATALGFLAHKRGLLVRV

[11] = Inhibition of NDM-1 (unknown origin) relative to control; design: concentration or dose not given beside the values; settings: Bacteria; concentration not given here
Interstitial collagenase = molecular target: T5, Interstitial collagenase (Homo sapiens, UniProt P03956); assay: Inhibition of human MMP-1
T5 sequence (P03956 whole entry): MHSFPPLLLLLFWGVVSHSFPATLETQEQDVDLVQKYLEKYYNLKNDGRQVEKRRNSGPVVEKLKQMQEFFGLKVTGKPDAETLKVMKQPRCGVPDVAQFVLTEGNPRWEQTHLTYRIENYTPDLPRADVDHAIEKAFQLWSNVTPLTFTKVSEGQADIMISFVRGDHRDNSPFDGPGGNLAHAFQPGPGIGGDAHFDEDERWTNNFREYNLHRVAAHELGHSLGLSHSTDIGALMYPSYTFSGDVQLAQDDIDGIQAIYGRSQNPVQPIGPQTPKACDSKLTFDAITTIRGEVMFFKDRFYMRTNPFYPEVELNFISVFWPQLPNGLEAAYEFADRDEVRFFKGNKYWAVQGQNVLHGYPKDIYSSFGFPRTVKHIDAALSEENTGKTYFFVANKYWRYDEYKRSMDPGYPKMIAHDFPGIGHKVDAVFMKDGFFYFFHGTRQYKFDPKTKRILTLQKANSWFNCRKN

Matrilysin = molecular target: T6, Matrilysin (Homo sapiens, UniProt P09237); assay: Inhibition of human MMP-7
T6 sequence (P09237 whole entry): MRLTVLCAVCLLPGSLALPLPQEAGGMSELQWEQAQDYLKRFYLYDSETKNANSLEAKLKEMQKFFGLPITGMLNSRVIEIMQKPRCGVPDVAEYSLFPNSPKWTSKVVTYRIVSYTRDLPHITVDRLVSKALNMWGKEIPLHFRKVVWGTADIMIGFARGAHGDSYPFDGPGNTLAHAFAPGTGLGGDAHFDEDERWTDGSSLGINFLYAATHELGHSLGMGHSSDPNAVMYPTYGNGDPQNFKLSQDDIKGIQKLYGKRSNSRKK

[12] = molecular target: T2, Matrix metalloproteinase-9; assay: Inhibition of human MMP-9
Collagenase 3 = Collagenase 3 (Homo sapiens, UniProt P45452); assay: Inhibition of human MMP-13
Neutrophil collagenase [13] = molecular target: T1, Neutrophil collagenase; assay: Inhibition of human MMP-8
Target sequence in this assay (P22894 whole entry): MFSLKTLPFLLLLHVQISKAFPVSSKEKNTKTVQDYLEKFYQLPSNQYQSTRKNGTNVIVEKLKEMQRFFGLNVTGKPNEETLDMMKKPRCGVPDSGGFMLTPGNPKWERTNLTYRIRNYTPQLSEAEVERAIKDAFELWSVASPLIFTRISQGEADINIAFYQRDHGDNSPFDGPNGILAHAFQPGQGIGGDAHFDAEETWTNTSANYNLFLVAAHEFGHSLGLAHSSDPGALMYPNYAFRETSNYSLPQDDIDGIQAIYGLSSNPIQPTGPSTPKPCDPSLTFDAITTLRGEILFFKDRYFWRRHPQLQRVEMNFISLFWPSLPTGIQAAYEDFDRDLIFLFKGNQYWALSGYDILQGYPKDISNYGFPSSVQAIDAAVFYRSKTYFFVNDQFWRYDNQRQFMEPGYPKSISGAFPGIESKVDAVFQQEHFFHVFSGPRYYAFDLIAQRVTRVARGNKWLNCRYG

[14] = molecular target: T7, Macrophage metalloelastase (Homo sapiens, UniProt P39900); assay: Inhibition of human MMP-12
Target sequence in this assay (P39900 whole entry): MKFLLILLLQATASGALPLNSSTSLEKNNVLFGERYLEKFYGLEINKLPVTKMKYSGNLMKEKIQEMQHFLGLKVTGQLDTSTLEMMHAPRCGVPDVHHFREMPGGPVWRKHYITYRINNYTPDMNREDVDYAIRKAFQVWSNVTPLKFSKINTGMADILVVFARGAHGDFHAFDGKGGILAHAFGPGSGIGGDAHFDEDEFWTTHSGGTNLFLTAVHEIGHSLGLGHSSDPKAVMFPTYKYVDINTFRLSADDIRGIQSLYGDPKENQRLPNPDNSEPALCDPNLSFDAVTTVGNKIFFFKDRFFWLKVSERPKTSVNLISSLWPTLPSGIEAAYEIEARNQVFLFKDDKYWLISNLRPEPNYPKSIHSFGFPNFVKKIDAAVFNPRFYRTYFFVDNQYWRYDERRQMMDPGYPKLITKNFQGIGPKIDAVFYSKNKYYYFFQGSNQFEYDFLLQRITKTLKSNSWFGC

[15] = molecular target: T7, Macrophage metalloelastase; assay: Inhibition of human MMP-12 relative to control; design: concentration or dose not given beside the values; settings: concentration not given here
Target sequence in this assay (P39900 106-470 limits assumed): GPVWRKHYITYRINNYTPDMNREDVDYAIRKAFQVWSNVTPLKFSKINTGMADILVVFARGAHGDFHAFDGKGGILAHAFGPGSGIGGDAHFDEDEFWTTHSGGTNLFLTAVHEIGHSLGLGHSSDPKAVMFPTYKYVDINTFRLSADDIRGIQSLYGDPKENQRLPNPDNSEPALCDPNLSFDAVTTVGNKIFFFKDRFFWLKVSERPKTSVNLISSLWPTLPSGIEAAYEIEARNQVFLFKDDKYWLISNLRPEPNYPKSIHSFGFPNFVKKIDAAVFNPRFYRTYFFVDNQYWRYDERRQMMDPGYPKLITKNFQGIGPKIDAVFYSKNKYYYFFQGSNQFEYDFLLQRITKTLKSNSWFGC

[16] = molecular target: T2, Matrix metalloproteinase-9; assay: Inhibition of human MMP-9 at 100 uM relative to control
Mushroom tyrosinase [17] = molecular target: T4, Mushroom tyrosinase; assay: Inhibition of mushroom monophenolase activity by Lineweaver-burk reciprocal plot analysis
Mushroom tyrosinase [18] = molecular target: T4, Mushroom tyrosinase; assay: Inhibition of mushroom Diphenolase activity by Lineweaver-burk reciprocal plot analysis
[19] = molecular target: T3, Mushroom tyrosinase (Agaricus bisporus); assay: Inhibition of mushroom Diphenolase activity using L-DOPA as substrate preincubated with substrate followed by compound addition by Lineweaver-burk reciprocal plot analysis
[20] = molecular target: Interstitial collagenase (Homo sapiens) (UniProt P03956); assay: Inhibition of human MMP-1 at 100 uM relative to control
Stromelysin-1 [21] = molecular target: T8, Stromelysin-1 (Homo sapiens, UniProt P08254); assay: Inhibition of human MMP-3 at 100 uM relative to control
Target sequence in this assay (P08254 100-477 limits assumed): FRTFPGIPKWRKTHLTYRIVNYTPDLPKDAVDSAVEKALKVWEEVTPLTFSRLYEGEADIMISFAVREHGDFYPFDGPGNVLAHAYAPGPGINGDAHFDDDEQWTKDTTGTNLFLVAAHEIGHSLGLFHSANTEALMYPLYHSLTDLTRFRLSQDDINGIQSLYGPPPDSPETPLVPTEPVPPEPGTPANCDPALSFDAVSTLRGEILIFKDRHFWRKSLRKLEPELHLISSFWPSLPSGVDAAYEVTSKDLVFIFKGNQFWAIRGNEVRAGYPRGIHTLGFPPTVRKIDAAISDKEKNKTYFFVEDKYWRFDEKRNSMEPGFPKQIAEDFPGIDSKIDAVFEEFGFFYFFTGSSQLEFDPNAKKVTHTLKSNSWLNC

Stromelysin-1 [22] = molecular target: T8, Stromelysin-1; assay: Inhibition of human MMP-3
Target sequence in this assay (P08254 whole entry): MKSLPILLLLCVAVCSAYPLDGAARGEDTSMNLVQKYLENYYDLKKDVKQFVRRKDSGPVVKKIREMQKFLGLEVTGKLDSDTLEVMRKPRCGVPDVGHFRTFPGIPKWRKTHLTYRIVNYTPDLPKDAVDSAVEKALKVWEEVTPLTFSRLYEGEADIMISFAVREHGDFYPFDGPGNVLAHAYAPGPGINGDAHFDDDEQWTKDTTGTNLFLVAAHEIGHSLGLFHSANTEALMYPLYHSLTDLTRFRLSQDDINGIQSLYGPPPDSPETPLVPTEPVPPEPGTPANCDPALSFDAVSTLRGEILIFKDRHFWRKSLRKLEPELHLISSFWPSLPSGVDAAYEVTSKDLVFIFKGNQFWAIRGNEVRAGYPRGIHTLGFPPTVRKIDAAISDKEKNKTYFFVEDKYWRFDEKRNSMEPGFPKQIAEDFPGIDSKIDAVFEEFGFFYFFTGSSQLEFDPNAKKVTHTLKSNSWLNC

Rattus norvegicus [23] = organism: Rattus norvegicus; assay: Cardioprotective activity in myocardial ischemia/reperfusion induced Sprague-Dawley rat injury model assessed as recovery of contractile function; type: functional
Rattus norvegicus [24] = organism: Rattus norvegicus; assay: Cardioprotective activity in myocardial ischemia/reperfusion induced Sprague-Dawley rat injury model assessed as improved RPP; type: functional
Rattus norvegicus [25] = organism: Rattus norvegicus; assay: Cardioprotective activity in myocardial ischemia/reperfusion induced Sprague-Dawley rat injury model assessed as improved coronary flow rate; type: functional
Rattus norvegicus [26] = organism: Rattus norvegicus; assay: Cardioprotective activity in myocardial ischemia/reperfusion induced Sprague-Dawley rat injury model assessed as reduction in muscle damage; type: functional; design: scale not given: the % may be the effect or the level left
Rattus norvegicus [27] = organism: Rattus norvegicus; assay: Cardioprotective activity in myocardial ischemia/reperfusion induced Sprague-Dawley rat injury model assessed as reduction in fibrillar collagen damage; type: functional; design: scale not given: the % may be the effect or the level left
Stromelysin-1 [28] = molecular target: T8, Stromelysin-1; assay: Inhibition of MMP-3 (unknown origin) by fluorescence based assay
Target sequence in this assay (P08254 whole entry): as above

Stromelysin-1 [29] = molecular target: T8, Stromelysin-1; assay: Inhibition of MMP-3 (unknown origin) by Colorimetric assay
Target sequence in this assay (P08254 whole entry): as above

Lethal factor = Lethal factor (Bacillus anthracis, UniProt P15917); assay: Inhibition of anthrax lethal factor
Chain of Lethal factor (P15917 whole entry): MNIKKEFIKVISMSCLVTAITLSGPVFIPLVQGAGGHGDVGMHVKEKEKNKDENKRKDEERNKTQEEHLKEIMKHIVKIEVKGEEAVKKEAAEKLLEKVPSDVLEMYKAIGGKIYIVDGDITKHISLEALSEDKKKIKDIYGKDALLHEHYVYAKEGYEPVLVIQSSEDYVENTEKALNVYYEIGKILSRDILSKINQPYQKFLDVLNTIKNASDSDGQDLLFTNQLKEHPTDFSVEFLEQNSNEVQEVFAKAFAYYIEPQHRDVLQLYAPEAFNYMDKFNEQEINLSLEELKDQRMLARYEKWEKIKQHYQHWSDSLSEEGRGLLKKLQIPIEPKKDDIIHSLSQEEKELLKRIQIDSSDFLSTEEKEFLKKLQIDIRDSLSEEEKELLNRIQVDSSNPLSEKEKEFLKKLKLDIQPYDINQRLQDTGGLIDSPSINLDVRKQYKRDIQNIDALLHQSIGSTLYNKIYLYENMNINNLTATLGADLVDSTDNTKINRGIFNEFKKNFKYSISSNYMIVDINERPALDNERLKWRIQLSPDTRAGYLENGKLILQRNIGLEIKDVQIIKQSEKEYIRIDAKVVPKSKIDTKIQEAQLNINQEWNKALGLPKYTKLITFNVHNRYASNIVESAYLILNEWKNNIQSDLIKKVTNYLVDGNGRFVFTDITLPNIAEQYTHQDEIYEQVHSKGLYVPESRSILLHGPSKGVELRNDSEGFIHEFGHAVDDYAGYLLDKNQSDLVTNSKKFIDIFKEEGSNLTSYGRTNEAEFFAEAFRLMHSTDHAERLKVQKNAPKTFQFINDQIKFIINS

[30] = Antioxidant activity assessed as DPPH radical scavenging activity; type: functional
[31] = molecular target: 72 kDa type IV collagenase (Homo sapiens, UniProt P08253); assay: Inhibition of MMP-2 (unknown origin)
Stromelysin-1 [32] = molecular target: T8, Stromelysin-1; assay: Inhibition of MMP-3 (unknown origin)
Target sequence in this assay (P08254 whole entry): as the sequence (P08254 whole entry) above

[33] = molecular target: T2, Matrix metalloproteinase-9; assay: Inhibition of MMP-9 (unknown origin)

Cc1occc(=O)c1O[C@@H]1O[C@H](CO)[C@@H](O)[C@H](O)[C@H]1O
inhibition (Neutrophil collagenase [1]): 33%
inhibition [2]: 73%

On1cc2ccccc2cc1=S
inhibition [3]: > 90%

O=C(O)c1cccc(=S)n1O
Ki [4]: 0.013 µM
inhibition (Pseudomonas aeruginosa): 98%
selectivity ratio [5]: 8800

Cc1c(OCc2ccccc2)c(=O)ccn1-c1ccc(CC(=O)Nc2ccc(-c3nc4ccccc4s3)cc2)cc1
IC50 (Acetylcholinesterase): 14.7 µM
inhibition [6]: 68%
Activity (SH-SY5Y): 100%

Cc1c(O)c(=O)ccn1C
inhibition ([7]; concentration not given here): 2%
inhibition (Glycine max): 70%

CCCNC(=O)CCC(=O)NCc1c(O)c(=O)cc(C)n1C
inhibition (Glycine max): 10%

CCCCCCCCn1cc(O)c(=O)cc1COC(=O)[C@H](N)Cc1ccccc1
IC50 (Mushroom tyrosinase [8]): 12.6 µM
IC50 (Mushroom tyrosinase [9]): 4.01 µM

Cc1cc(=O)c(O)c(CO)n1CCn1cc(COc2ccc3ccc(=O)oc3c2)nn1
IC50 [10]: 0.68 µM

S=c1cc[nH]c2[nH]cnc12
inhibition [11]: 90%

Cc1c(OCc2ccccc2)c(=O)ccn1-c1ccc(CC(=O)Nc2ccc(Cc3nc4ccccc4s3)cc2)cc1
IC50 (Acetylcholinesterase): 14.7 µM

Cc1cc(=O)c(O)c(C(=O)NCc2ccc(-c3ccccc3)cc2)o1
IC50 (Interstitial collagenase): 25 µM
IC50 (Matrilysin): 25 µM
IC50 [12]: 25 µM
IC50 (Collagenase 3): 4 µM
IC50 (Neutrophil collagenase [13]): 0.018 µM
IC50 [14]: 0.018 µM

CCCCCCCCn1ccc(=O)c(O)c1C
inhibition (Glycine max): 40%

Oc1coc2ccccc2c1=S
inhibition [15]: 93%
inhibition [3]: > 90%

Cc1occ(O)c(=S)c1C(=O)NCc1ccc(-c2ccccc2)cc1
inhibition [16]: 54%

CCCCCCO/N=C/c1cc(=O)c(O)c[nH]1
IC50 (Mushroom tyrosinase [8]): 2.04 µM
IC50 (Mushroom tyrosinase [9]): 13.89 µM
Ki (Mushroom tyrosinase [17]): 24.84 µM
Kis [7]: 18.1 µM
Ki (Mushroom tyrosinase [18]): 24.84 µM
Kis [19]: 18.1 µM

Cc1cc(=O)c(O)c(CO)n1CCCn1cc(COc2cc3ccccc3oc2=O)nn1
IC50 [10]: 0.86 µM

Cc1occ(O)c(=O)c1C(=O)NCc1ccc(-c2ccccc2)cc1
inhibition [20]: 21%
inhibition (Stromelysin-1 [21]): 21%

Cn1cc(O)c(=O)cc1/C=C/C(=O)c1ccc(F)cc1
IC50 (Mushroom tyrosinase [8]): 3.07 µM
IC50 (Mushroom tyrosinase [9]): 17.05 µM

[O-][n+]1ccccc1S
IC50 [4]: 0.908 µM
Ki [4]: 0.217 µM

Cc1cc(=O)c(O)c(C(=O)NCc2ccc(-c3ccccc3)cc2)n1C
IC50 (Interstitial collagenase): 25 µM
IC50 (Matrilysin): 25 µM
IC50 [12]: 25 µM
IC50 (Collagenase 3): 4 µM
IC50 (Neutrophil collagenase [13]): 1.2 µM

COc1ccc(C(=O)/C=C/c2cc(=O)c(O)c[nH]2)cc1OC
IC50 (Mushroom tyrosinase [8]): 2.75 µM
IC50 (Mushroom tyrosinase [9]): 19.3 µM

O=C(NCc1ccc(-c2ccccc2)cc1)c1occc(=O)c1O
IC50 (Interstitial collagenase): 25 µM
IC50 (Matrilysin): 25 µM
IC50 [12]: 25 µM
IC50 (Collagenase 3): 4 µM
IC50 (Neutrophil collagenase [13]): 0.018 µM
IC50 [14]: 0.018 µM
IC50 (Stromelysin-1 [22]): 0.077 µM

CCCCCCCCO/N=C/c1cc(=O)c(O)c[nH]1
IC50 (Mushroom tyrosinase [8]): 1.6 µM
IC50 (Mushroom tyrosinase [9]): 7.99 µM
Ki (Mushroom tyrosinase [17]): 32.54 µM
Kis [7]: 21.3 µM
Ki (Mushroom tyrosinase [18]): 32.54 µM
Kis [19]: 21.3 µM

O=C(NCc1ccc(-c2ccccc2)cc1)c1cccc(=O)n1O
IC50 (Interstitial collagenase): 25 µM
IC50 (Matrilysin): 25 µM
IC50 [12]: 25 µM
IC50 (Collagenase 3): 4 µM
IC50 (Neutrophil collagenase [13]): 0.018 µM
Activity (Rattus norvegicus [23]): 80%
Activity (Rattus norvegicus [24]): 23%
Activity (Rattus norvegicus [25]): 22%
Activity (Rattus norvegicus [26]): 25%
Activity (Rattus norvegicus [27]): 60%

[O-][n+]1ccccc1S [PYRITHIONE]
IC50 (Stromelysin-1 [28]): 35 µM
IC50 (Stromelysin-1 [29]): 20 µM

On1ccc2[nH]cnc2c1=S
inhibition [11]: 90%

CS(=O)(=O)Cc1cccc(=S)n1O
inhibition [15]: 93%
inhibition [11]: 90%
inhibition [3]: > 90%

On1ccc2ccccc2c1=S
inhibition [15]: 93%
inhibition [11]: 90%

Cc1cc(=S)c(O)c(C(=O)NCc2ccc(-c3ccccc3)cc2)o1
IC50 (Lethal factor): 13.9 µM

Cc1c(O)c(=O)ccn1CCCC(=O)N1CCCC1c1nc2ccccc2s1 (stereo not given)
EC50 [30]: 247 µM

Cc1c(O)c(=S)ccn1Cc1ccc(-c2ccccc2)cc1
IC50 [31]: 1 µM
IC50 (Stromelysin-1 [32]): 4 µM
IC50 [33]: 2 µM
IC50 (Lethal factor): 3 µM

Cn1ccc(=O)c(O)c1C(=O)NCc1ccc(-c2ccccc2)cc1
IC50 (Interstitial collagenase): 25 µM
IC50 (Matrilysin): 25 µM
IC50 [12]: 25 µM
IC50 (Collagenase 3): 4 µM
IC50 (Neutrophil collagenase [13]): 1.2 µM

Cc1c(OCc2ccccc2)c(=O)ccn1CCCC(=O)Nc1ccc(Cc2nc3ccccc3s2)cc1
IC50 (Acetylcholinesterase): 14.7 µM

Oc1coccc1=S
inhibition [15]: 93%
inhibition [11]: 90%
inhibition [3]: > 90%

Cc1c(O)c(=S)ccn1C
inhibition [11]: 90%

O=C(O)c1c[nH]c2ccccc2c1=S
inhibition [15]: 93%
